Reference: PubChem BioAssay (NCI)
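Growth conditions: 96-well plates. Treatment: test compound, 48 hours, 5 concentrations. Analysis: linear interpolation between bracketing concentrations; unreached endpoints set to highest concentration. GI50 = concentration required for 50% inhibition of growth. The concentration for full growth arrest is given as TGI.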

Legend:
Experiment in all cases: NCI-60 cell line screen, 48 h
HCC-2998 colon = tested on: HCC-2998 colon
EKVX NSCLC = tested on: EKVX NSCLC
SK-OV-3 ovarian = tested on: SK-OV-3 ovarian
RXF 393 renal = tested on: RXF 393 renal
MDA-MB-231 breast = tested on: MDA-MB-231 breast
ACHN renal = tested on: ACHN renal
NCI-H23 lung = tested on: NCI-H23 lung
A498 renal = tested on: A498 renal
IGROV1 ovarian = tested on: IGROV1 ovarian
SK-MEL-2 melanoma = tested on: SK-MEL-2 melanoma
U251 CNS = tested on: U251 CNS
MOLT-4 leukemia = tested on: MOLT-4 leukemia
HOP-62 NSCLC = tested on: HOP-62 NSCLC

`COC(C)(C)/C=C/c1[nH]c2ccccc2c1CC(=O)NCCc1cn(C(c2ccccc2)(c2ccccc2)c2ccccc2)cn1` was tested, and the TGI (HCC-2998 colon) was 2.95 µM, the TGI (EKVX NSCLC) was > 100 µM and the TGI (SK-OV-3 ovarian) was > 34.9 µM. The TGI (RXF 393 renal) was > 100 µM, the TGI (MDA-MB-231 breast) was 15 µM and the TGI (ACHN renal) was > 100 µM. The TGI (NCI-H23 lung) was 22.9 µM, the TGI (A498 renal) was 12.9 µM and the TGI (IGROV1 ovarian) was > 100 µM. For the same compound, the TGI (SK-MEL-2 melanoma) was 6.45 µM, the TGI (U251 CNS) was 16.5 µM and the TGI (MOLT-4 leukemia) was 6.21 µM. It also gave a TGI (HOP-62 NSCLC) of 34.4 µM.
`CC(C)C(OC(=O)c1ccc(NCC2=CC(=O)C=CC2=O)cc1)C(C)C` gave a TGI (HCC-2998 colon) of 27.9 µM, a TGI (EKVX NSCLC) of 29.1 µM and a TGI (SK-OV-3 ovarian) of 42.1 µM. The TGI (RXF 393 renal) was 3.67 µM, the TGI (MDA-MB-231 breast) was 31.8 µM and the TGI (ACHN renal) was 21.2 µM. For the same compound, the TGI (NCI-H23 lung) was 20.2 µM, the TGI (A498 renal) was 31.9 µM and the TGI (IGROV1 ovarian) was 5.14 µM. The TGI (SK-MEL-2 melanoma) was 27.3 µM, the TGI (U251 CNS) was 13.5 µM and the TGI (MOLT-4 leukemia) was 7.12 µM. It also gave a TGI (HOP-62 NSCLC) of 48.3 µM.
In the case of `Cc1cc2nc3ccccc3n2c2nc(N)ccc12`, the TGI (HCC-2998 colon) was > 100 µM, the TGI (EKVX NSCLC) was > 100 µM and the TGI (RXF 393 renal) was > 100 µM. The TGI (MDA-MB-231 breast) was > 100 µM, the TGI (ACHN renal) was > 100 µM and the TGI (NCI-H23 lung) was > 100 µM. The TGI (A498 renal) was > 100 µM, the TGI (IGROV1 ovarian) was > 100 µM and the TGI (SK-MEL-2 melanoma) was > 100 µM. For the same compound, the TGI (MOLT-4 leukemia) was > 100 µM and the TGI (HOP-62 NSCLC) was > 100 µM.
For `COC(=O)CCNC(=O)OCc1ccccc1`, the TGI (HCC-2998 colon) was > 100 µM, the TGI (EKVX NSCLC) was > 100 µM and the TGI (SK-OV-3 ovarian) was > 100 µM. The TGI (MDA-MB-231 breast) was > 100 µM, the TGI (ACHN renal) was > 100 µM and the TGI (NCI-H23 lung) was > 100 µM. For the same compound, the TGI (A498 renal) was > 100 µM, the TGI (IGROV1 ovarian) was > 100 µM and the TGI (SK-MEL-2 melanoma) was > 100 µM. The TGI (U251 CNS) was > 100 µM, the TGI (MOLT-4 leukemia) was > 100 µM and the TGI (HOP-62 NSCLC) was > 100 µM.
With `O=C1/C(=C/c2ccccc2[N+](=O)[O-])N=C(c2ccccc2)N1c1nc2ccccc2s1` the TGI (HCC-2998 colon) was 43.1 µM, the TGI (EKVX NSCLC) was > 100 µM and the TGI (RXF 393 renal) was 33.7 µM. The TGI (MDA-MB-231 breast) was > 100 µM, the TGI (ACHN renal) was 82.1 µM and the TGI (NCI-H23 lung) was 41.4 µM. The TGI (A498 renal) was 72.1 µM, the TGI (IGROV1 ovarian) was 33.7 µM and the TGI (SK-MEL-2 melanoma) was > 100 µM. For the same compound, the TGI (U251 CNS) was > 100 µM, the TGI (MOLT-4 leukemia) was 34.7 µM and the TGI (HOP-62 NSCLC) was 72.2 µM.
`COc1ccccc1/C=C/C1=NN(c2cccc(S(=O)(=O)O)c2)C2(C1)C(Cl)C(=O)N2c1nc2ccccc2s1` (configuration not stated) was tested, and the TGI (HCC-2998 colon) was > 100 µM, the TGI (EKVX NSCLC) was > 100 µM and the TGI (SK-OV-3 ovarian) was > 100 µM. The TGI (RXF 393 renal) was > 87 µM, the TGI (MDA-MB-231 breast) was > 100 µM and the TGI (ACHN renal) was > 100 µM. For the same compound, the TGI (NCI-H23 lung) was > 100 µM, the TGI (A498 renal) was > 100 µM and the TGI (IGROV1 ovarian) was > 100 µM. The TGI (SK-MEL-2 melanoma) was > 100 µM, the TGI (U251 CNS) was > 100 µM and the TGI (MOLT-4 leukemia) was > 100 µM. The TGI (HOP-62 NSCLC) was > 100 µM.
With `CCCCCc1c(CCCC)c(=O)[nH]c2nc(NC(=O)CCCC)ccc12` the TGI (HCC-2998 colon) was > 100 µM, the TGI (EKVX NSCLC) was > 100 µM and the TGI (SK-OV-3 ovarian) was > 100 µM. The TGI (RXF 393 renal) was > 100 µM, the TGI (MDA-MB-231 breast) was > 100 µM and the TGI (ACHN renal) was > 100 µM. The TGI (NCI-H23 lung) was > 100 µM, the TGI (A498 renal) was > 100 µM and the TGI (IGROV1 ovarian) was > 100 µM. The TGI (SK-MEL-2 melanoma) was > 100 µM, the TGI (U251 CNS) was > 100 µM and the TGI (MOLT-4 leukemia) was > 100 µM. For the same compound, the TGI (HOP-62 NSCLC) was > 100 µM.
In the case of `Cc1ccc2c(=O)cc(-c3ccc4ccccc4c3)[nH]c2n1`, the TGI (HCC-2998 colon) was 68.6 µM, the TGI (EKVX NSCLC) was > 100 µM and the TGI (SK-OV-3 ovarian) was > 100 µM. The TGI (MDA-MB-231 breast) was > 100 µM, the TGI (ACHN renal) was > 100 µM and the TGI (NCI-H23 lung) was 28.7 µM. For the same compound, the TGI (A498 renal) was 15.5 µM, the TGI (IGROV1 ovarian) was 82.7 µM and the TGI (SK-MEL-2 melanoma) was > 100 µM. The GI50 (U251 CNS) was 4.57 µM, the TGI (U251 CNS) was > 100 µM and the TGI (MOLT-4 leukemia) was 29.1 µM. The TGI (HOP-62 NSCLC) was > 100 µM.
`O=C1NN(Cc2ccccc2)C(=O)N2CCC[C@@H]12` was tested, and the TGI (HCC-2998 colon) was > 100 µM, the TGI (EKVX NSCLC) was > 100 µM and the TGI (SK-OV-3 ovarian) was > 100 µM. For the same compound, the TGI (RXF 393 renal) was > 100 µM, the TGI (MDA-MB-231 breast) was > 100 µM and the TGI (ACHN renal) was > 100 µM. For the same compound, the TGI (NCI-H23 lung) was > 100 µM, the TGI (A498 renal) was > 100 µM and the TGI (IGROV1 ovarian) was > 100 µM. For the same compound, the TGI (SK-MEL-2 melanoma) was > 100 µM, the TGI (MOLT-4 leukemia) was > 100 µM and the TGI (HOP-62 NSCLC) was > 100 µM.
